Reference: the OligoGym collection
After the bases stand the sugars from the 5' end (letter, count) and the backbone: PS all phosphorothioate, else s phosphorothioate and o phosphodiester by linkage. Methylation of C is not given here. e = 2'-O-(2-methoxyethyl) (MOE); k = constrained ethyl (cEt); d = 2'-deoxy (DNA); m = 2'-O-methyl

Target: HSD17B13
Details: ASO, HepaRG

Row | Sequence | target mRNA inhibition (1 µM) [%] | also measured
1 | GATTTGAAGGTTAGAT (sugars k3 d10 k3, PS) | 47 | –
2 | CCATTATCCTTACTCC (sugars k3 d10 k3, PS) | 27 | –
3 | AGGATACCTGAAAAGC (sugars k3 d10 k3, PS) | 81 | target mRNA inhibition (0.02 µM): 13%; target mRNA inhibition (0.078 µM): 23%; target mRNA inhibition (0.313 µM): 54%; target mRNA inhibition (1.25 µM): 70%; target mRNA inhibition (5 µM): 88%
4 | GTTCAAATTGGATGCA (sugars k3 d10 k3, PS) | 68 | –
5 | TACTCTAGGAGATATA (sugars k3 d10 k3, PS) | 33 | –
6 | CTATAGTAATCACAAG (sugars kkdddddddddkekek, PS) | 36 | –
7 | GGGACCAATATAATCC (sugars k3 d10 k3, PS) | 31 | –
8 | GCCAATTCACATATGT (sugars k3 d10 k3, PS) | 34 | –
9 | AATATAGCCCTTTCCC (sugars k3 d10 k3, PS) | 44 | –
10 | GGAAAGGATATTTGGC (sugars k3 d10 k3, PS) | 58 | –
11 | GTAATCACAAGTAAGG (sugars kkdddddddddkekek, PS) | 72 | target mRNA inhibition (0.02 µM): 0%; target mRNA inhibition (0.078 µM): 2%; target mRNA inhibition (0.313 µM): 35%; target mRNA inhibition (1.25 µM): 49%; target mRNA inhibition (5 µM): 70%
12 | AGTCCATGCAAAAGCA (sugars kkdddddddddkekek, PS) | 52 | –
13 | CCATCTATCAGACTTC (sugars k3 d9 k3 e1, PS) | 60 | –
14 | TTGAATAGCAAGCCAA (sugars k3 d1 m1 d8 k3, PS) | 30 | –
15 | AGTGCCAAACCAATGT (sugars k3 d10 k3, PS) | 62 | –
16 | GTTTTTATTGGGCCCA (sugars k3 d10 k3, PS) | 67 | –
17 | GAGAGAACTTATACAA (sugars k3 d10 k3, PS) | 37 | –
18 | GTAATTTTCAGATCCC (sugars k3 d10 k3, PS) | 82 | target mRNA inhibition (0.02 µM): 24%; target mRNA inhibition (0.078 µM): 43%; target mRNA inhibition (0.313 µM): 69%; target mRNA inhibition (1.25 µM): 88%; target mRNA inhibition (5 µM): 88%
19 | TGTTATCTCAAGTCAG (sugars k3 d10 k3, PS) | 81 | target mRNA inhibition (0.02 µM): 0%; target mRNA inhibition (0.078 µM): 0%; target mRNA inhibition (0.313 µM): 31%; target mRNA inhibition (1.25 µM): 54%; target mRNA inhibition (5 µM): 81%
20 | AGTCCATGCAAAAGCA (sugars k3 d10 k3, PS) | 77 | target mRNA inhibition (0.02 µM): 1%; target mRNA inhibition (0.078 µM): 14%; target mRNA inhibition (0.313 µM): 38%; target mRNA inhibition (1.25 µM): 55%; target mRNA inhibition (5 µM): 78%
21 | CTAAAATTGTCTAAAC (sugars k3 d1 m1 d8 k3, PS) | 13 | –
22 | TAGAGTTGCACCGTTT (sugars k3 d10 k3, PS) | 58 | –
23 | CTTACTAAGGAAATTC (sugars k3 d10 k3, PS) | 19 | –

Row | Sequence | target mRNA inhibition (1 µM) [%] | also measured
24 | CATGGCTACAGATTGG (sugars k3 d10 k3, PS) | 54 | –
25 | GTTATAAGTTTCATGT (sugars k3 d10 k3, PS) | 21 | –
26 | CAGTAGGTGTGTTTCA (sugars k3 d10 k3, PS) | 47 | –
27 | TCTACAAAACTGGTAT (sugars k3 d10 k3, PS) | 9 | –
28 | TTAGTACCAAGACACT (sugars k3 d10 k3, PS) | 41 | –
29 | ATATTGAGGCACTGGA (sugars k3 d10 k3, PS) | 53 | –
30 | ACGACTCCAAGTAGGA (sugars k3 d10 k3, PS) | 24 | –
31 | GTATTGAGATGACAGT (sugars k3 d10 k3, PS) | 68 | target mRNA inhibition (0.02 µM): 0%; target mRNA inhibition (0.078 µM): 0%; target mRNA inhibition (0.313 µM): 3%; target mRNA inhibition (1.25 µM): 47%; target mRNA inhibition (5 µM): 73%
32 | TCAAAGTTTTGGGACC (sugars k3 d10 k3, PS) | 42 | –
33 | GTAAGAGTCAGTATCC (sugars k3 d10 k3, PS) | 47 | –
34 | TTAGAAACTGCTCCTC (sugars k3 d10 k3, PS) | 48 | –
35 | GTAAUCACAAGTAAGG (sugars k3 d1 m1 d8 k3, PS) | 20 | –
36 | ACGAAGCCTGAATGCC (sugars k3 d10 k3, PS) | 52 | –
37 | TGTCCAGGTTGAGATA (sugars k3 d1 m1 d8 k3, PS) | 41 | –
38 | ATCTATCAGACTTCTT (sugars kkdddddddddkekek, PS) | 37 | –
39 | CCAATATGCTCTGTCG (sugars k3 d10 k3, PS) | 65 | –
40 | TAGAGTCGGTCACCTT (sugars k3 d1 m1 d8 k3, PS) | 55 | –
41 | GTCATAAAGGTGGGAT (sugars k3 d10 k3, PS) | 28 | –
42 | TGAATCATGATTGAAT (sugars k3 d10 k3, PS) | 38 | –
43 | AACTGAGCTAGACAAT (sugars k3 d10 k3, PS) | 44 | –
44 | TTTAGCAGCTTGGAAG (sugars k3 d10 k3, PS) | 43 | –
45 | ATTGTAATCTTGAGGC (sugars k3 d10 k3, PS) | 39 | –
46 | GGCCGCACACTGAAGC (sugars k3 d10 k3, PS) | 9 | –

Row | Sequence | target mRNA inhibition (1 µM) [%] | also measured
47 | TGCAGCATTGATTCGA (sugars k3 d10 k3, PS) | 47 | –
48 | CGTTTGACTGCTGCTA (sugars kkdddddddddkekek, PS) | 48 | –
49 | GAGTTGCACCGTTTTG (sugars k3 d10 k3, PS) | 48 | –
50 | TCCCAACCAAACTTCC (sugars k3 d9 k3 e1, PS) | 24 | –
51 | GTAACGGTGATCAAAT (sugars k3 d9 k3 e1, PS) | 32 | –
52 | TTCTACAGAAGACTAC (sugars k3 d10 k3, PS) | 40 | –
53 | GGAGTCGGATTATTTT (sugars k3 d10 k3, PS) | 41 | –
54 | GCAAGCCAACAGAGAG (sugars k3 d9 k3 e1, PS) | 38 | –
55 | CGCGAGATGATGTTGC (sugars k3 d10 k3, PS) | 53 | –
56 | GGAGGAGGTACTGTCT (sugars k3 d10 k3, PS) | 44 | –
57 | AAATATGTCCAGGTTG (sugars k3 d10 k3, PS) | 68 | –
58 | ATGGTAAGGAGTAGTG (sugars k3 d10 k3, PS) | 17 | –
59 | TGAGATGGGCAAGGCC (sugars k3 d10 k3, PS) | 53 | –
60 | GGGAGGTAGCTTTTGT (sugars k3 d10 k3, PS) | 10 | –
61 | TTATATGAGGTCTGTA (sugars k3 d10 k3, PS) | 32 | –
62 | ATGAAGTTAGTATAGT (sugars k3 d10 k3, PS) | 55 | –
63 | TAATACGACTTCCTTC (sugars k3 d10 k3, PS) | 32 | –
64 | GATGTTAGGACCCAGT (sugars k3 d10 k3, PS) | 64 | –
65 | CTGGAACAATATGGGA (sugars k3 d10 k3, PS) | 38 | –
66 | CTCATTTATGTACCAA (sugars k3 d10 k3, PS) | 87 | target mRNA inhibition (0.02 µM): 0%; target mRNA inhibition (0.078 µM): 50%; target mRNA inhibition (0.313 µM): 75%; target mRNA inhibition (1.25 µM): 79%
67 | GCTGAGTGGATTACAT (sugars k3 d10 k3, PS) | 44 | –
68 | GTCTTAAACCTTCCCT (sugars kkdddddddddkekek, PS) | 28 | –
